The test system of series [1] is SARS-CoV-2 Omicron BA.2. The arrangement: species or system Syrian hamsters. Conditions: hamster, in vivo.
A short description of series [2]: in vitro. The conditions noted are these: male, Syrian, hamster, serum.
The subject of series [3] is SARS-CoV-2 hCoV-19/Japan/TY/WK-521 strain. In words: microbe, parasite or virus in culture. It is filed as cell-based. Conditions: read-out: CPE EC50.
A short description of series [4]: in vitro. The conditions noted are these: female, BALB/cAJcl, mouse, serum.
Series [5] relates to SARS-CoV-2. Conditions: Phase 2a and Phase 2b studies; cited from earlier work.
For series [6], the system named is SARS-CoV-2 Omicron BA.1 strain (hCoV-19/Japan/TY38-873/2021). It counts as cell-based. Conditions: read-out: Viral titre EC90.
Series [7] deals with SARS-CoV-2 Delta strain (hCoV-19/Japan/TY11-927/2021). It is filed as cell-based. Conditions: read-out: Viral titre EC90.
The conditions of series [8]: BALB/cAJcl, mouse, in vivo.
Series [9] in a line: Protein binding of nirmatrelvir in mouse serum by equilibrium dialysis. Conditions: female, BALB/cAJcl, pH 7.4. It is filed as in vitro ADME, BALB/cAJcl mice. Background: In equilibrium dialysis free small molecules cross a membrane that holds back macromolecules.
The nature of series [10]: Protein binding of nirmatrelvir in hamster serum by equilibrium dialysis. Conditions: male, Syrian, pH 7.4. It counts as in vitro ADME, Syrian hamsters.
Setting [11] is: Severe acute respiratory syndrome coronavirus 2, HEK-293T, 72 h.

Values joined by “and” are separate entries in the source; they are usually repeats but may differ in a detail not shown here. Equal entries are not always repeated. Where two headings read alike, the source gives them in different places.

As for `Cn1cnc(Cn2c(=O)[nH]/c(=N\c3cc4cn(C)nc4cc3Cl)n(Cc3cc(F)c(F)cc3F)c2=O)n1` [Ensitrelvir, ensitrelvir fumaric acid], in [1], the “Antiviral activity in the lungs (viral titres)” value was “failed to show antiviral activity”, the “Antiviral activity in the nasal turbinates compared with that of nirmatrelvir” value was “greater antiviral activity” and the “Lowering of lung viral titres compared with 750/250 mg/kg nirmatrelvir” value is “less effective”. In addition, in [2], the fraction unbound is 0.017. Moreover, in series [3] (setting [11]), the concentration giving a half-maximal response (EC50) amounted to 0.027 ± 0.002 µM. In [4], this molecule gave a fraction unbound of 0.024. Moreover, the “Viral titres in nasal lavage fluid” value in series [5] is reported as “significantly reduced viral titres”.

As for `O=c1nc(NO)ccn1[C@@H]1O[C@H](CO)[C@@H](O)[C@H]1O` [NHC, β-D-N^4-hydroxycytidine], the EC50 in series [3] came to 4 ± 3.5 µM. For the same molecule, the EC90 in [6] is 2.35 µM and 3.66 µM; in [7] it was 3.83 µM and 6.72 µM.

Turning to `CC(C)(C)[C@H](NC(=O)C(F)(F)F)C(=O)N1C[C@H]2[C@@H]([C@H]1C(=O)N[C@H](C#N)C[C@@H]1CCNC1=O)C2(C)C` [Nirmatrelvir, nirmatrelvir], in series [8], the “f-C24h unbound drug plasma concentration” value is on record as 676 ± 609 ng/mL, the “f-C72h unbound drug plasma concentration” value was 1490 ± 430 ng/mL, the “t-C24h total plasma concentration” value was 1010 ± 910 ng/mL and the “t-C48h total plasma concentration” value is given as 2050 ± 610 ng/mL. The “t-C72h total plasma concentration” value in series [8] is listed as 2230 ± 650 ng/mL. In series [9], this molecule gave a fraction unbound at 24 h, 4 µM of 0.669. The fraction unbound at 24 h, 4 µM in series [10] is 0.596. For the same molecule, the concentration giving a half-maximal response (EC50) in series [3] (setting [11]) was 0.041 ± 0.013 µM.

As to `CCC(CC)COC(=O)[C@H](C)N[P@](=O)(OC[C@H]1O[C@@](C#N)(c2ccc3c(N)ncnn23)[C@H](O)[C@@H]1O)Oc1ccccc1` [Remdesivir, remdesivir], the EC50 in [3] (setting [11]) stood at 0.012 ± 0.002 µM.

In general, fraction unbound refers to the share of the substance not bound to proteins or other matrix. Low readings indicate little free substance, high ones much free substance. For orientation: EC50 means the concentration giving half of the maximal effect. By EC90 is commonly meant the point of the concentration-response curve where the effect stands at 90%.
